The structures appear in SMILES notation.

For assay [1], the target named is T1, Human Tryptophan 2,3-dioxygenase (TDO) (Homo sapiens, UniProt P48775).
T1 construct: His tag (N); made in house; host or cells: E. coli
As to the kind of experiment: Human TDO enzymatic assay (kynurenine level). It counts as biochemical. Conditions: 1 nM TDO, 350 μM L-Trp; geometric mean; read-out: TDO GMean: IC50 (μM) (Biochemical Assay). An outline of the steps: (§1)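 N-His human IDO (6 nM, 10 μM L-Trp, 5 μM methylene blue, 20 min) or TDO (1 nM, 350 μM L-Trp, 0.4 μM methylene blue, 70 min) run at room temp in pH 6.5 phosphate with ascorbate, catalase, Tween 20. TCA stop, 30 min 50 °C converts N-formylkynurenine to kynurenine; IC50 by nonlinear regression.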

In assay [2] the target is T2, Human Indoleamine 2,3-dioxygenase (IDO) (Homo sapiens, UniProt P14902).
T2 construct: His tag (N); made in house; host or cells: E. coli
T2 sequence (P14902 whole entry): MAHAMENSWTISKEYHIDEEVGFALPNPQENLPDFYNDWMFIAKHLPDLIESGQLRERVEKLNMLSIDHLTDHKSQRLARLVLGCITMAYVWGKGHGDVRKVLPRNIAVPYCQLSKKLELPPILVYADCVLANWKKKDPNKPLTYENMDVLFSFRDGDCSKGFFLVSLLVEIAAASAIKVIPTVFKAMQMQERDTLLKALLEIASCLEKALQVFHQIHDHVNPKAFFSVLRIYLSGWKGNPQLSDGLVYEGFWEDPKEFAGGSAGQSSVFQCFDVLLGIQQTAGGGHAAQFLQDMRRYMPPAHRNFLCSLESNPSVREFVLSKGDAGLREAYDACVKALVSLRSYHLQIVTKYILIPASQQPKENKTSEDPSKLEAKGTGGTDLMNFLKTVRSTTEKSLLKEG
Briefly: Human IDO enzymatic assay (kynurenine level). Conditions: 6 nM IDO, 10 μM L-Trp; geometric mean; read-out: IDO1 GMean: IC50 (μM) (Biochemical Assay). The class given is biochemical. In outline: as §1

The target of assay [3] is T3, human TDO (TDO-expressing HEK293 cells) (Homo sapiens, UniProt P48775).
T3 construct: expressed in transfected cells
T3 sequence (P48775 whole entry): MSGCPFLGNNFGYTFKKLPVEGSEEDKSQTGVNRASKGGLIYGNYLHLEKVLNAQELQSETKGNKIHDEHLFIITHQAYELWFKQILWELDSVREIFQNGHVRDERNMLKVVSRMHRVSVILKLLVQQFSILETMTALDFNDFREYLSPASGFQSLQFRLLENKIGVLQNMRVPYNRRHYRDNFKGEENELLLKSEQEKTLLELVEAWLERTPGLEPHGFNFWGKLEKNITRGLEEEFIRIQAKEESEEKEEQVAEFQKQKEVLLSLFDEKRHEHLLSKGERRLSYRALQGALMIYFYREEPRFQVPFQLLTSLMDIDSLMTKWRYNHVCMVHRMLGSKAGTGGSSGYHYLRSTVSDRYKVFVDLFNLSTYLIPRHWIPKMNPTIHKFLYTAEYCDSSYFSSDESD
Briefly: Cell based kynurenine assay, TDO-expressing HEK293 cell clones. Conditions: TDO-expressing HEK293 cells, 24 hours incubation; geometric mean; read-out: HEK293 TDO Kynurenine GMean IC50 (μM) (Cellular Assay). An outline of the steps: (§2)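 HEK293 stable clones (hIDO1 or hTDO, CMV-driven; G418-selected); 2.5×10^4 cells/well; compound serial dilution, 24 h, 37 °C, 5% CO2; supernatant kynurenine; IC50 by nonlinear fit.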

In assay [4] the target is T4, human IDO (IDO1-expressing HEK293 cells) (Homo sapiens, UniProt P14902).
T4 construct: expressed in transfected cells
T4 sequence (P14902 whole entry): as the sequence (P14902 whole entry) above
Briefly: Cell based kynurenine assay, IDO1-expressing HEK293 cell clones. Conditions: IDO1-expressing HEK293 cells, 24 hours incubation; geometric mean; read-out: HEK293 IDO1 Kynurenine GMean IC50 (μM) (Cellular Assay). An outline of the steps:
as §2

T1 sequence (P48775 whole entry): as the sequence (P48775 whole entry) above

As usually defined, the IC50 is the concentration that inhibits the measured activity by half. Turning to `OC1(c2cc(Cl)cc3cn[nH]c23)CC2(CCCCC2)C1` [Compound P-0051, 2-(5-chloro-1H-indazol-7-yl)spiro[3.5]nonan-2-ol], the IC50 in assay [1], in assay [2], in assay [3] and in assay [4] was 0.0001 to 10 µM in each case.
With `CC1(C(O)c2c(F)c(Cl)cc3cn[nH]c23)CCCCC1` (centres unmarked) [Compound P-0052, (5-chloro-6-fluoro-1H-indazol-7-yl)(1-methylcyclohexyl)methanol], the IC50 in assay [1], in assay [2], in assay [3] and in assay [4] was 0.0001 to 10 µM in each case.
With `OC(c1cc(Cl)cc2cn[nH]c12)C1(C(F)(F)F)CCCC1` (centres unmarked) [Compound P-0053, (5-chloro-1H-indazol-7-yl)(1-(trifluoromethyl)cyclopentyl)methanol], the IC50 in assay [1], in assay [2], in assay [3] and in assay [4] was 0.0001 to 10 µM in each case.
Turning to `CC1(C(O)c2c3c(cc4cn[nH]c24)CC3)CCCCC1` (centres unmarked) [Compound P-0054, (5,6-dihydro-1H-cyclobuta[f]indazol-7-yl)(1-methylcyclohexyl)methanol], the IC50 in assay [1] is 0.0001 to 10 µM; in assay [2], 0.0001 to 10 µM; in assay [3], over 10 µM; in assay [4] it was 0.0001 to 10 µM.
`CC1(C(O)c2cc(Cl)c(F)c3cn[nH]c23)CCCCC1` (centres unmarked) [Compound P-0055, (5-chloro-4-fluoro-1H-indazol-7-yl)(1-methylcyclohexyl)methanol]: the IC50 in assay [1], in assay [2], in assay [3] and in assay [4] was 0.0001 to 10 µM in each case.
For `OC(c1cccc2cncn12)C1CCCC1` (centres unmarked) [Compound P-0058, cyclopentyl(imidazo[1,5-a]pyridin-5-yl)methanol], the IC50 in assay [1] is 0.0001 to 10 µM; in assay [2] it was 0.0001 to 10 µM; in assay [3] it was over 10 µM; in assay [4], 0.0001 to 10 µM.
As to `OC(c1cccc2cncn12)C1CC2CCC1C2` (centres unmarked) [Compound P-0059, bicyclo[2.2.1]heptan-2-yl(imidazo[1,5-a]pyridin-5-yl)methanol], the IC50 is 0.0001 to 10 µM in assay [1], 0.0001 to 10 µM in assay [2], over 10 µM in assay [3] and 0.0001 to 10 µM in assay [4].
On to `OC(c1cccc2cncn12)C1CCCCC1` (centres unmarked) [Compound P-0060, cyclohexyl(imidazo[1,5-a]pyridin-5-yl)methanol], for which the IC50 in assay [1] was 0.0001 to 10 µM; in assay [2] it was 0.0001 to 10 µM; in assay [3], over 10 µM; in assay [4] it was 0.0001 to 10 µM.
`CC1(C(O)c2cccc3cncn23)CCCCC1` (centres unmarked) [Compound P-0061, imidazo[1,5-a]pyridin-5-yl(1-methylcyclohexyl)methanol]: the concentration for half-maximal inhibition (IC50) in assay [1] is 0.0001 to 10 µM; in assay [2], 0.0001 to 10 µM; in assay [3] it was over 10 µM; in assay [4], 0.0001 to 10 µM.
With `OC(c1cccc2cncn12)C1(F)CCC(F)(F)CC1` (centres unmarked) [Compound P-0062, imidazo[1,5-a]pyridin-5-yl(1,4,4-trifluorocyclohexyl)methanol], the half-maximal inhibitory concentration (IC50) is 0.0001 to 10 µM in assay [1], 0.0001 to 10 µM in assay [2], over 10 µM in assay [3] and over 10 µM in assay [4].
Regarding `OC(c1cccc2cncn12)C1CCCCCCC1` (centres unmarked) [Compound P-0063], the IC50 in assay [1] is 0.0001 to 10 µM; in assay [2] it was 0.0001 to 10 µM; in assay [3] it was over 10 µM; in assay [4], over 10 µM.
For the molecule `OC(CCc1ccccc1)c1cccc2cncn12` (centres unmarked) [Compound P-0074, 1-(imidazo[1,5-a]pyridin-5-yl)-3-phenylpropan-1-ol], the half-maximal inhibitory concentration (IC50) was 10 to 100 µM in assay [1], 0.0001 to 10 µM in assay [2], over 10 µM in assay [3] and over 10 µM in assay [4].
As for `CC(C)(C)OC(=O)N1CCC(C(O)c2cccc3cncn23)CC1` (centres unmarked) [Compound P-0076, tert-butyl 4-(hydroxy(imidazo[1,5-a]pyridin-5-yl)methyl)piperidine-1-carboxylate], the IC50 is 0.0001 to 10 µM in assay [1], 10 to 100 µM in assay [2], over 10 µM in assay [3] and over 10 µM in assay [4].
`OC(CC1CCCCC1)c1cccc2cncn12` (stereo not drawn) [Compound P-0079, 2-cyclohexyl-1-(imidazo[1,5-a]pyridin-5-yl)ethan-l-ol]: the IC50 in assay [1] was 0.0001 to 10 µM; in assay [2], 0.0001 to 10 µM; in assay [3], over 10 µM; in assay [4], 0.0001 to 10 µM.
Consider `OC(c1cccc2cncn12)C1CCC1` (centres unmarked) [Compound P-0080, cyclobutyl(imidazo[1,5-a]pyridin-5-yl)methanol], for which the IC50 in assay [1] is 0.0001 to 10 µM; in assay [2], 0.0001 to 10 µM; in assay [3], over 10 µM; in assay [4], over 10 µM.
As for `OC(c1cccc2cncn12)C1CCC(F)(F)CC1` (centres unmarked) [Compound P-0081, (4,4-difluorocyclohexyl)(imidazo[1,5-a]pyridin-5-yl)methanol], the IC50 in assay [1] is 0.0001 to 10 µM; in assay [2] it was 0.0001 to 10 µM; in assay [3] it was over 10 µM; in assay [4], over 10 µM.
Turning to `CC1(C(O)c2cc(Br)cc3cncn23)CCCCC1` (centres unmarked) [Compound P-0082, (7-bromoimidazo[1,5-a]pyridin-5-yl)(1-methylcyclohexyl)methanol], the IC50 in assay [1], in assay [2], in assay [3] and in assay [4] was 0.0001 to 10 µM throughout.
As to `CC1(C(O)c2cc(Cl)cc3cncn23)CCCCC1` (centres unmarked) [Compound P-0083, (7-Chloroimidazo[1,5-a]pyridin-5-yl)(1-methylcyclohexyl)methanol], the half-inhibitory concentration (IC50) in assay [1], in assay [2], in assay [3] and in assay [4] was 0.0001 to 10 µM in each case.
`OC(CC1CCOCC1)c1cccc2cncn12` (stereo not drawn) [Compound P-0084, 1-(imidazo[1,5-a]pyridin-5-yl)-2-(tetrahydro-2H-pyran-4-yl)ethan-l-ol]: the 50% inhibitory concentration (IC50) in assay [1] was 0.0001 to 10 µM; in assay [2], 0.0001 to 10 µM; in assay [3] it was over 10 µM; in assay [4], over 10 µM.
Consider `CC(C)(C)OC(=O)N1CCC(CC(O)c2cccc3cncn23)CC1` (stereo not drawn) [Compound P-0085, tert-butyl 4-(2-hydroxy-2-(imidazo[1,5-a]pyridin-5-yl)ethyl)piperidine-l-carboxylate], for which the half-inhibitory concentration (IC50) in assay [1] is 0.0001 to 10 µM; in assay [2] it was 0.0001 to 10 µM; in assay [3], over 10 µM; in assay [4], over 10 µM.
`CC(C)(C1CCCCC1)C(O)c1cc(Cl)cc2cncn12` (centres unmarked) [Compound P-0086, 1-(7-chloroimidazo[1,5-a]pyridin-5-yl)-2-cyclohexyl-2-methylpropan-1-ol]: the 50% inhibitory concentration (IC50) in assay [1], in assay [2], in assay [3] and in assay [4] was 0.0001 to 10 µM throughout.
Take `OC(c1cccc2cncn12)C12CC3CC(CC(C3)C1)C2` [Compound P-0087, ((1S,3s)-adamantan-1-yl)(imidazo[1,5-a]pyridin-5-yl)methanol]: the half-inhibitory concentration (IC50) is 0.0001 to 10 µM in assay [1], 0.0001 to 10 µM in assay [2], over 10 µM in assay [3] and 0.0001 to 10 µM in assay [4].
With `CC1(C(O)c2c(Cl)ccc3cncn23)CCCCC1` (centres unmarked) [Compound P-0088, (6-chloroimidazo[1,5-a]pyridin-5-yl)(1-methylcyclohexyl)methanol], the IC50 in assay [1] was 0.0001 to 10 µM; in assay [2] it was 0.0001 to 10 µM; in assay [3], over 10 µM; in assay [4] it was 0.0001 to 10 µM.

These data come from US10508085B2, “Compounds and methods for IDO and TDO modulation, and indications therefor” (Plexxikon Inc., priority 2016, dated 2019).
